Measured values: patent publication US9433214B2, “Active compounds combination containing fluopyram Bacillus and biologically control agent” (BAYER INTELLECTUAL PROPERTY GMBH, priority 2012, dated 2016)

Test system: Meloidogyne incognita
Assay: Meloidogyne incognita test (MELGIN): gall formation on salad seedlings in sand
Type: in vivo
Conditions: 504 h, eggs and larvae of Meloidogyne incognita, salad seeds in sand, 100% = no galls, read-out: Mortality in % after 21 d
Method: Meloidogyne incognita—Test (MELGIN)
Solvent: 125.0 parts by weight of acetone
To produce a suitable preparation of active compound, 1 part by weight of active compound is mixed with the stated amount of solvent, and the concentrate is diluted with water to the desired concentration. The preparation of the bacteria, fungi or yeast products contains 10^9-10^10 spores/g or cells/g. To produce a suitable preparation of a biological suspension the cells or spores are diluted with emulsifier-containing water to the desired concentration.
Vessels are filled with sand, a solution of the active ingredient, a suspension containing eggs and larvae of Meloidogyne incognita and salad seeds. The salad seeds germinate and the seedlings grow. Galls develop in the roots.
After the specified period of time the nematicidal activity is determined on the basis of the percentage of gall formation. When Meloidogyne incognita attacks roots of plants, it deforms the normal root cells and establishes giant cells and consequently the attacked roots form galls. 100% means that no galls were found; 0% means that the number of galls found on the roots of the treated plants was equal to that in untreated control plants.

O=C(NCCc1ncc(C(F)(F)F)cc1Cl)c1ccccc1C(F)(F)F [Fluopyram]
gall reduction efficacy at 0.0005 ppm: 0%
